The structures appear in SMILES notation. A value given as a limit tells only on which side of the number the result lay.

What is called IC50 is the concentration that gives 50% inhibition. What is called Ki is the dissociation constant of the complex between target and ligand, obtained from inhibition or displacement. Read a high Ki as weaker binding.

Assay [1] has as its target Sodium-dependent serotonin transporter (Homo sapiens, UniProt P31645). Format: cell-based, JAR.
Description: Inhibition of 5-HT transporter-mediated [3H]5HT uptake in human Jar cells
The species entered for a further assay is Rattus norvegicus. As to the kind of experiment: Displacement of [3H]prazosin from alpha1 adrenergic receptor in Sprague-Dawley rat cortical membrane at 1 uM.
Assay [2] addresses T1, 5-hydroxytryptamine receptor 1A (Homo sapiens, UniProt P08908).
T1 sequence (P08908 whole entry): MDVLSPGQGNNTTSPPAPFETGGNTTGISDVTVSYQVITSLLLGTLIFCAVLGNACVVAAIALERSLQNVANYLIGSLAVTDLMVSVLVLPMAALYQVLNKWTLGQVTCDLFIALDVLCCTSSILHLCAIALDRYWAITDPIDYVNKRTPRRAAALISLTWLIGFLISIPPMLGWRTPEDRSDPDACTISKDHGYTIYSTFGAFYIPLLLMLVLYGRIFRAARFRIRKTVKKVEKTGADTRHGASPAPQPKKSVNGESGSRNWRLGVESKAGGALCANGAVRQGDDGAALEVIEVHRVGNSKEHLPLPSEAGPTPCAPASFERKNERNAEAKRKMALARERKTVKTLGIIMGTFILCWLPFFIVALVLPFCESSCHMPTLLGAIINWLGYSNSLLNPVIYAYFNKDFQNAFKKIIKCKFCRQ
Description: Activity at human cloned 5HT1A receptor expressed in CHO cells assessed as blockade of 5-HT-stimulated [35S]GTPgammaS binding

The target in assay [3] is T2, 5-hydroxytryptamine receptor 1A (Homo sapiens) (UniProt P08908).
T2 sequence (whole entry): T1 sequence (P08908 whole entry)
The assay is described as follows: Displacement of [3H]8-OH-DPAT from human recombinant 5HT1A receptor expressed in CHO cells at 1uM. Type of assay: cell-based. For orientation: Displacement assays read how much labelled ligand stays bound in the presence of the test substance.

The target of assay [4] is Sodium-dependent serotonin transporter (Rattus norvegicus, UniProt P31652).
Description: Displacement of [3H]paroxetine from serotonin transporter in Sprague-Dawley rat frontal cortical membrane
Assay [5] has as its target T1, 5-hydroxytryptamine receptor 1A. The assay is described as follows: biochemical.

Sequence of Sodium-dependent serotonin transporter (Homo sapiens, UniProt P31645) (P31645 whole entry): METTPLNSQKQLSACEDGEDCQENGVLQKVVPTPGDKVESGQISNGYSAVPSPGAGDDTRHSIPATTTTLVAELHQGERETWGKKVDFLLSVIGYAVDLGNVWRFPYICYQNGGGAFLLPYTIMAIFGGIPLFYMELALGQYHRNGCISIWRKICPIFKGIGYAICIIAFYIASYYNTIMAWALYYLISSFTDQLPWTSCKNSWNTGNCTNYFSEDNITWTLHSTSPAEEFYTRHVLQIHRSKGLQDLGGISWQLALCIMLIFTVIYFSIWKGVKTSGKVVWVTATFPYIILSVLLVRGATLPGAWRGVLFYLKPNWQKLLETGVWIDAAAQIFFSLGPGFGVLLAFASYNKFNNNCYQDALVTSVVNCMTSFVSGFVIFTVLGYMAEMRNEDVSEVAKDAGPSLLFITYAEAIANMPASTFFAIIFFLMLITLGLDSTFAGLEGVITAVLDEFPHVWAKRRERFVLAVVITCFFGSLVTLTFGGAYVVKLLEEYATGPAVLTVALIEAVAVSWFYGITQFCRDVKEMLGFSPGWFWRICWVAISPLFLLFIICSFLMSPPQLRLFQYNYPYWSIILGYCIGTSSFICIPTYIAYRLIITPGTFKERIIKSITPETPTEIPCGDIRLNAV
Sequence of Sodium-dependent serotonin transporter (Rattus norvegicus, UniProt P31652) (P31652 whole entry): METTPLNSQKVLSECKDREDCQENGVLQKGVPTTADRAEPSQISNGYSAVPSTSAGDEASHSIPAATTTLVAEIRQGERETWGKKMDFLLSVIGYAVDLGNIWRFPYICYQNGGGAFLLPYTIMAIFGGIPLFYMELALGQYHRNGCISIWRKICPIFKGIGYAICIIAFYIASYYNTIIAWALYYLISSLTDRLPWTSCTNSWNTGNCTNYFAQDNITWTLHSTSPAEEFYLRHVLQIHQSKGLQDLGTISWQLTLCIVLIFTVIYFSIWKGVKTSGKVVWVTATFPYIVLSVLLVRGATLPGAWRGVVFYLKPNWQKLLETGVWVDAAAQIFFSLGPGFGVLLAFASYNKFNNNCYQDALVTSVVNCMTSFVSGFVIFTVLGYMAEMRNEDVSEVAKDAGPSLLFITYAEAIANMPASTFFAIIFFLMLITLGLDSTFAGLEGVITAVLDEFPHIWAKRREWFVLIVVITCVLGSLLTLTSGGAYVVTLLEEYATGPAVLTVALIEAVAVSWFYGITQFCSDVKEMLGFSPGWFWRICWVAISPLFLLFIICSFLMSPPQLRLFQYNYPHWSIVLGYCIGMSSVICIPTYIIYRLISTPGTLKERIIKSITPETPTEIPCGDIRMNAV

For the molecule `O=C(O)c1ccc(F)c2c1CC(N(CCCc1c[nH]c3ccc(F)cc13)C1CCC1)CO2` (stereo not drawn), the half-inhibitory concentration (IC50) was 1030 nM in assay [1] and greater than 2000 nM in assay [2]. Also, the Activity in the assay filed under Rattus norvegicus was determined as 8%; in assay [3], 4%.

On to `NC(=O)c1cccc2c1CC(N(CCCc1c[nH]c3ccc(F)cc13)C1CCC1)CO2` (single isomer, unassigned; (-)), for which the IC50 in assay [1] came out at 109 nM; in assay [2], 66 nM. The Ki in assay [4] was determined as 5.9 nM.

For `O=C(NC1CC1)c1ccc(F)c2c1CC(N(CCCc1c[nH]c3ccc(F)cc13)C1CCC1)CO2` (stereo not drawn), the half-maximal inhibitory concentration (IC50) in assay [1] is 69.6 nM. The Activity in the assay filed under Rattus norvegicus stood at 12%. In addition, the Ki in assay [4] was found to be 8.05 nM.

Take `CNC(=O)c1ccc(F)c2c1C[C@@H](N(CCCc1c[nH]c3ccc(F)cc13)C1CCC1)CO2`: the results for the IC50 in assay [1] and in assay [2] were 147 nM and 262 nM, respectively. Besides, in the assay listed under Rattus norvegicus, the Activity is 0%. Besides, the results for the Ki in assay [4] and in assay [5] were 10.2 nM and 1.32 nM, respectively.

Regarding `CCCN(CCCc1c[nH]c2ccc(F)cc12)[C@H]1COc2c(F)ccc(C(=O)NC)c2C1`, the IC50 was 47 nM in assay [1] and 752 nM in assay [2]. Further, the Activity in the assay filed under Rattus norvegicus is 39%. For the same molecule, the Ki is 11.3 nM in assay [4] and 2.64 nM in assay [5].

The molecule `CCCN(CCCc1c[nH]c2ccc(F)cc12)C1COc2c(F)ccc(C(=O)NC)c2C1` (stereo not drawn) yielded an IC50 in assay [1] of 24.3 nM. Moreover, in assay [4], the Ki is 2.4 nM.

With `NC(=O)c1cccc2c1CC(N(CCCc1c[nH]c3ccc(F)cc13)C1CCC1)CO2` (stereo in doubt; 35e), the IC50 in assay [1] was found to be 114 nM. In addition, in assay [4], affinity was put at a Ki of 9.55 nM.

With `O=C(NC1CCCCC1)c1ccc(F)c2c1CC(N(CCCc1c[nH]c3ccc(F)cc13)C1CCC1)CO2` (stereo not drawn), the IC50 is 144 nM in assay [1] and greater than 1000 nM in assay [2]. Further, the values for the Activity (in the assay listed under Rattus norvegicus; in assay [3]) were 21% and 44%, respectively.

As for `O=C(NCC1CC1)c1ccc(F)c2c1CC(N(CCCc1c[nH]c3ccc(F)cc13)C1CCC1)CO2` (stereo not drawn), the 50% inhibitory concentration (IC50) is 43.6 nM in assay [1] and greater than 1000 nM in assay [2]. In the assay filed under Rattus norvegicus, the Activity worked out at 31%. Further, the inhibition constant Ki in assay [4] was determined as 6.91 nM.

As to `CC(C)NC(=O)c1ccc(F)c2c1CC(N(CCCc1c[nH]c3ccc(F)cc13)C1CCC1)CO2` (stereo not drawn), the half-inhibitory concentration (IC50) in assay [1] was 44.7 nM; in assay [2] it was greater than 2000 nM. Moreover, in the assay filed under Rattus norvegicus, the Activity worked out at 4%. Moreover, in assay [4], the inhibition constant (Ki) was 11.3 nM.

Consider `CCNC(=O)c1ccc(F)c2c1CC(N(CCCc1c[nH]c3ccc(F)cc13)C1CCC1)CO2` (stereo not drawn), for which the values for the IC50 in assay [1] and in assay [2] were 27.9 nM and greater than 1000 nM, respectively. The same molecule registered an Activity in the assay filed under Rattus norvegicus of 12%. Further, the Ki in assay [4] worked out at 9.47 nM.

`NC(=O)c1ccc(Cl)c2c1CC(N(CCCc1c[nH]c3ccc(F)cc13)C1CCC1)CO2` (single isomer, unassigned; (-)): the IC50 turned out to be 61.4 nM in assay [1] and 125 nM in assay [2]. Besides, the Ki in assay [4] amounted to 1.98 nM; in assay [5], 10.9 nM.

Take `CCCN(CC1CCc2[nH]c3ccc(F)cc3c2C1)[C@H]1COc2c(F)ccc(C(N)=O)c2C1` (stereo in doubt; 58a): the concentration for half-maximal inhibition (IC50) in assay [1] and in assay [2] was greater than 1000 nM throughout. This molecule also displayed a Ki in assay [4] greater than 1000 nM.

Take `O=C(NC1CCC1)c1ccc(F)c2c1CC(N(CCCc1c[nH]c3ccc(F)cc13)C1CCC1)CO2` (stereo not drawn): in assay [1], the IC50 worked out at 70.6 nM. The molecule also showed an Activity in the assay filed under Rattus norvegicus of 12%. The inhibition constant (Ki) in assay [4] stood at 7.26 nM.

Molecule `CNC(=O)c1ccc(F)c2c1CC(N(CCCc1c[nH]c3ccc(F)cc13)C1CCC1)CO2` (stereo not drawn) had an IC50 in assay [1] of 15 nM. This molecule gave an Activity in the assay filed under Rattus norvegicus of 27%. Besides, the inhibition constant Ki in assay [4] is 8.3 nM.

Consider `N#Cc1ccc2[nH]cc(CCCN(C3CCC3)C3COc4c(F)ccc(C(N)=O)c4C3)c2c1` (single isomer, unassigned; (-)), for which the values for the concentration for half-maximal inhibition (IC50) in assay [1] and in assay [2] were 24.1 nM and 195 nM, respectively. The Ki in assay [4] is 2.44 nM; in assay [5], 1.98 nM.

For the molecule `N#Cc1ccc2[nH]cc(CCCN(C3CCC3)C3COc4c(F)ccc(C(N)=O)c4C3)c2c1` (single isomer, unassigned; (+)), the IC50 in assay [1] was determined as 10.1 nM; in assay [2], 1000 nM. For the same molecule, the Ki was found to be 9.05 nM in assay [4] and 258 nM in assay [5].

`NC(=O)c1ccc(F)c2c1CC(N(CCCCn1ccc3ccc(F)cc31)CC1CC1)CO2` (stereo not drawn) registered an IC50 in assay [1] greater than 1000 nM. In assay [4], this molecule registered a Ki of 9.96 nM.

As to `CCCNC(=O)c1ccc(F)c2c1CC(N(CCCc1c[nH]c3ccc(F)cc13)C1CCC1)CO2` (stereo not drawn), half-maximal inhibition in assay [1] (IC50) was put at 32.7 nM. In addition, the Activity in the assay listed under Rattus norvegicus turned out to be 21%. The same molecule gave a Ki in assay [4] of 7.96 nM.

Consider `CCCN(CCCc1c[nH]c2ccc(F)cc12)C1COc2c(F)ccc(OC)c2C1` (stereo not drawn), for which, in assay [1], the IC50 worked out at 442 nM. Also, the inhibitory constant (Ki) in assay [4] turned out to be 12.5 nM; in assay [5], 19.4 nM.

Take `CCCN(CCCc1c[nH]c2ccc(F)cc12)[C@H]1COc2cccc(C(N)=O)c2C1`: the IC50 in assay [1] turned out to be 146 nM. In the assay listed under Rattus norvegicus, the Activity was found to be 31%. The Ki in assay [4] came to 23.4 nM; in assay [5], 0.93 nM.

With `NC(=O)c1ccc(Cl)c2c1CC(N(CCCc1c[nH]c3ccc(F)cc13)C1CCC1)CO2` (stereo in doubt; 35d), the IC50 was 56.5 nM in assay [1] and greater than 1000 nM in assay [2]. In assay [4], this molecule returned a Ki of 3.74 nM.

`NC(=O)c1ccc(F)c2c1CC(N(CCCCn1ccc3cccc(F)c31)C1CCC1)CO2` (stereo not drawn): the IC50 in assay [1] and in assay [2] was greater than 1000 nM throughout. Besides, the Activity in the assay listed under Rattus norvegicus is 14%.

Molecule `COc1cccc2c(CCCN(C3CCC3)C3COc4c(F)ccc(C(N)=O)c4C3)c[nH]c12` (stereo not drawn) had an IC50 in assay [1] greater than 1000 nM. The molecule further came in with an Activity in the assay listed under Rattus norvegicus of 15%. In addition, the Ki in assay [4] is greater than 1000 nM.

With `COc1ccc2[nH]cc(CCCN(C3CCC3)C3COc4c(F)ccc(C(N)=O)c4C3)c2c1` (stereo not drawn), the values for the IC50 in assay [1] and in assay [2] were 834 nM and 419 nM, respectively. The molecule also gave a Ki in assay [4] greater than 1000 nM.

In the case of `NC(=O)c1ccc(F)c2c1CC(N(CCCc1c[nH]c3c(Cl)cccc13)C1CCC1)CO2` (stereo not drawn), the 50% inhibitory concentration (IC50) in assay [1] and in assay [2] was greater than 1000 nM throughout. In addition, the Activity in the assay filed under Rattus norvegicus stood at 29%.

The values above are taken from ChEMBL document CHEMBL1142498 (J Med Chem, 2008).
